# Test results reported in paper PMC5647335, “Controlling the bioactivity of a peptide hormone in vivo by reversible self-assembly” (Nature Communications, 2017).
# Tested on: CHO-hGLP-1R cells
# Format: cell-based, Chinese hamster
# Settings: 48 h treatment, resazurin 5 h, fluorescence 590 nm; Oxm concentrations up to 1000-fold above the EC50; three independent experiments
# Procedure: CHO-hGLP-1R cells in growth medium (DMEM, 10%FBS Sigma-Aldrich) were plated at 10,000 cells per well in 96-well black clear-bottom poly-D-lysine-coated microtiter plates (Corning, USA). […] Fluorescence emission was measured at 590 nm (560 nm excitation).
smiles,measurement,value
Cn1cc(C2=C(c3cn(CCCSC(=N)N)c4ccccc34)C(=O)NC2=O)c2ccccc21 [Ro-318220],in vitro cytotoxicity (cell viability),expected curves of concentration vs. loss of cell viability
CN[C@@H]1C[C@H]2O[C@@](C)([C@@H]1OC)n1c3ccccc3c3c4c(c5c6ccccc6n2c5c31)C(=O)NC4 [staurosporine],in vitro cytotoxicity (cell viability),expected curves of concentration vs. loss of cell viability
